Assay results published in paper PMC9030691, “Toxicokinetics of β-Amanitin in Mice and In Vitro Drug–Drug Interaction Potential” (Pharmaceutics, 2022).
Where “and” joins values, the source holds several entries; their conditions need not be identical. Equal entries are not always repeated. Where two headings read alike, the source gives them in different places.

Legend:
[1] = Toxicokinetics after intravenous injection in mice; format: in vivo; conditions: male ICR mice; for MRT / Vd / clearance / half-life / AUC(0-inf) / AUC(0-t) / C0: mouse, mean ± SD; for MRT: AUMC/AUC; for Vd: CLxMRT, read-out: Vss; for clearance: Dose/AUC; for half-life: plasma elimination half-life; for AUC(0-inf) / AUC(0-t) / C0: LC-HRMS, non-compartmental
Description: The Institutional Animal Care and Use Committee of the Catholic University of Korea (approval number, CUK-IACUC-2021-004; approval date, 21 March 2021) approved the study protocol. Male ICR mice (8 weeks of age, 27.4 ± 2.3 g) were purchased from Orient Bio Inc. (Seongnam, Korea). Mice were kept in plastic cages with unlimited access to a standard mouse diet (Orient Bio) and water before the experiments. For oral administration, mice were fasted for at least 12 h but allowed free access to water.
β-amanitin was dissolved in water and administered by iv bolus injection into the tail vein of mice at doses of 0.2 (n = 8), 0.4 (n = 6), and 0.8 (n = 7) mg/kg. Blood samples (approximately 15 μL) were collected from the retro-orbital plexus under light anesthesia with isoflurane at 0.033, 0.083, 0.25, 0.5, 0.75, 1, 1.5, 2, 3, 4, 6, and 8 h after drug administration.
Concentrations of β-amanitin in biological samples were evaluated following our previous methodology. The standard calibration curves for β-amanitin in mouse plasma ranged from 0.5 to 500 ng/mL and were linear, with a correlation coefficient of 0.9952. The inter- and intra-day accuracy and precision fell within the acceptance criteria (3.1–14.6% of coefficients of variation (CVs) and 92.5–115.0% of accuracy). The extraction recovery and matrix effect of this analytical method were 82.8–88.9% and 93.0–98.6%.
An aliquot (5 μL) of plasma sample was mixed with 15 μL of 4′-hydroxydiclofenac (internal standard (IS), 5 ng/mL) in methanol and vortexed for 2 min. The mixture was centrifuged at 13,000× g at 4 °C for 5 min, and the supernatant was then transferred to an autosampler vial. An aliquot (5 μL) was injected into the LC-HRMS system for analysis.
The toxicokinetic parameters of β-amanitin were analyzed by non-compartmental analyses (WinNonlin, Pharsight; Mountain View, CA, USA) (Table 1). Data were expressed as mean ± standard deviations (SD). Comparisons of data between groups were performed using one-way ANOVA or Student t-test. Values of p < 0.05 were considered statistically significant.

CYP2C19 = biological target: T1, CYP2C19 (Homo sapiens, UniProt P33261); assay: CYP2C19 inhibition in human liver microsomes; format: in vitro ADME; conditions: ultrapooled human liver microsomes 0.2 mg/mL, 100 μM [S]-mephenytoin, β-amanitin 0.1–100 μM, pH 7.4, 37 °C, 15 min, LC-MS/MS, n = 3, read-out: IC50, CYP2C19 [S]-mephenytoin 4′-hydroxylase
T1 construct: from tissue; host or cells: ultrapooled human liver microsomes
T1 sequence (P33261 whole entry): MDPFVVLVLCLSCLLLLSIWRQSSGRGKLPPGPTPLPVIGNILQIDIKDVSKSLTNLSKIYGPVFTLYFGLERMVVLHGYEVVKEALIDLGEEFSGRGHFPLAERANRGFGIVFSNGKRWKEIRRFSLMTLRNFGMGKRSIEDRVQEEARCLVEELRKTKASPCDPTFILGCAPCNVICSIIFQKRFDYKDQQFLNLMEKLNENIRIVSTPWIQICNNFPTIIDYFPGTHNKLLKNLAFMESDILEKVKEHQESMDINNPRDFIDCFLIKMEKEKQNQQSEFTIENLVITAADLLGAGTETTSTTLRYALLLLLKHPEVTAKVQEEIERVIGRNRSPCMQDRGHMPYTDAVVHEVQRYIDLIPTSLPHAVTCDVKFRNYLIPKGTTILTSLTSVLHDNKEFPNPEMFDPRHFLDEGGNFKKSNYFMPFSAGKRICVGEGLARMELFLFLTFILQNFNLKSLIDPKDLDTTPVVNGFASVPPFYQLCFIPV
Description: (§1) β-amanitin inhibition (IC50 values) of CYP1A2, CYP2A6, CYP2B6, CYP2C8, CYP2C9, CYP2C19, CYP2D6, and CYP3A4 enzyme activities in HLMs were evaluated using LC-MS/MS and CYP substrates as previously described. Each incubation mixture was made up to a volume of 100 μL including HLMs (0.2 mg/mL), 50 mM potassium phosphate buffer (pH 7.4), 1.0 mM NADPH, 10 mM magnesium chloride, various concentrations of β-amanitin (0.1–100 μM), a cocktail of seven CYP probe substrates (50 μM phenacetin for CYP1A2, 2.5 μM coumarin for CYP2A6, 2 μM amodiaquine for CYP2C8, 10 μM diclofenac for CYP2C9, 100 μM [S]-mephenytoin for CYP2C19, 5 μM bufuralol for CYP2D6, and 2.5 μM midazolam for CYP3A4 in acetonitrile), or 50 μM bupropion for CYP2B6. The reactions were initiated with NADPH followed by incubation in a shaking water bath at 37 °C for 15 min with or without 30 min preincubation with NADPH. Reactions were stopped with 50 μL of ice-cold methanol containing ^13C2, ^15N-acetaminophen and d9-1′-hydroxybufuralol (ISs). Incubation mixtures were centrifuged at 13,000× g for 8 min at 4 °C. An aliquot (5 μL) of the supernatant from the reaction mixture was analyzed by the previous LC-MS/MS method.

CYP3A4 = biological target: T2, CYP3A4 (Homo sapiens, UniProt P08684); assay: CYP3A4 inhibition in human liver microsomes; format: in vitro ADME; conditions: ultrapooled human liver microsomes 0.2 mg/mL, 2.5 μM midazolam, β-amanitin 0.1–100 μM, pH 7.4, 37 °C, 15 min, LC-MS/MS, n = 3, read-out: IC50, CYP3A4 midazolam 1′-hydroxylase
T2 construct: from tissue; host or cells: ultrapooled human liver microsomes
T2 sequence (P08684 whole entry): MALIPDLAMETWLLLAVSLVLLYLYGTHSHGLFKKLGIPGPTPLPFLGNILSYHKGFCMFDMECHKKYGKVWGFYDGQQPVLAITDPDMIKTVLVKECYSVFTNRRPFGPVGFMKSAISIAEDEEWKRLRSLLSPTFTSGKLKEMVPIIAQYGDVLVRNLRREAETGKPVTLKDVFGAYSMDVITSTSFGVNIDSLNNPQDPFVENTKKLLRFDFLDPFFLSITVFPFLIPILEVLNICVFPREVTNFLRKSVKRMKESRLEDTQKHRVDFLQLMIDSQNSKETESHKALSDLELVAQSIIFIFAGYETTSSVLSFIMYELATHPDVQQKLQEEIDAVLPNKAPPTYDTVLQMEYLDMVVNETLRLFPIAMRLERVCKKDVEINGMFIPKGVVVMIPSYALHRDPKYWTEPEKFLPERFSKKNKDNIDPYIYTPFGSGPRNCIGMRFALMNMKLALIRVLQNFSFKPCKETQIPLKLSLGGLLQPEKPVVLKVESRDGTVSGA
Description: as §1

mice = conditions: intraperitoneal injection; cited from earlier work
Text: (§2) The Amanitaceae family is responsible for nearly 95% of all fatal mushroom poisonings, and amatoxins are the primary threats to human life. The content of amatoxins varies by Amanita species, but α- and β-amanitin are the most abundant substances. […] Among amatoxins, α-amanitin i ...

rats = conditions: intraperitoneal injection; cited from earlier work
Text: as §2

humans = conditions: oral administration; cited from earlier work
Description: Amanita phalloides poisoning can cause acute hepatitis, leading to the rapid development of liver insufficiency and ultimately coma and death. Nephrotoxicity is reported less frequently. Yilmaz et al. reported that an oral intake of approximately 50 g of fresh Amanita phalloides, representing a dose of 0.32 mg/kg of amatoxins, can be lethal. A few reports are available that describe the toxicokinetics of α- and β-amanitin after the oral administration of toadstool extract to beagle dogs and rats. In addition, the toxicokinetics of α-amanitin were investi ... || The Amanitaceae family is responsible for nearly 95% of all fatal mushroom poisonings, and amatoxins are the primary threats to human life. The content of amatoxins varies by Amanita species, but α- and β-amanitin are the most abundant substances. […] Among amatoxins, α-amanitin i ...

[2] = plasma, iv bolus 0.2 mg/kg, n = 8
[3] = plasma, iv bolus 0.4 mg/kg, n = 6
[4] = plasma, iv bolus 0.8 mg/kg, n = 7
[5] = iv bolus 0.2 mg/kg, plasma, n = 8
[6] = iv bolus 0.4 mg/kg, plasma, n = 6
[7] = iv bolus 0.8 mg/kg, plasma, n = 7
[8] = with 30 min NADPH preincubation

CC[C@H](C)[C@@H]1NC(=O)CNC(=O)[C@@H]2Cc3c([nH]c4cc(O)ccc34)[S@+]([O-])C[C@H](NC(=O)CNC1=O)C(=O)N[C@@H](CC(=O)O)C(=O)N1C[C@H](O)C[C@H]1C(=O)N[C@@H]([C@@H](C)[C@@H](O)CO)C(=O)N2 [β-amanitin]
t1/2, range over the iv doses ([1]; iv 0.2, 0.4 and 0.8 mg/kg, plasma, range of the dose-group means): 18.3–33.6 min and 18.3~33.6 min | MRT [1, 2]: 22.8 min | Vd [1, 2]: 0.359 ± 0.0855 L/kg | clearance [1, 2]: 15.3 ± 2.5 mL/min/kg | MRT [1, 3]: 22.4 min | Vd [1, 3]: 0.366 ± 0.061 L/kg | clearance [1, 3]: 16.2 ± 2.4 mL/min/kg | MRT [1, 4]: 20.7 min | Vd [1, 4]: 0.39 ± 0.0771 L/kg | clearance [1, 4]: 18.8 ± 6 mL/min/kg | half-life ([1]; iv bolus 0.2 mg/kg, n = 8): 21.8 ± 8.3 min | AUC(0-inf) [1, 5]: 223 ng·h/mL | AUC(0-t) [1, 5]: 222 ng·h/mL | half-life ([1]; iv bolus 0.4 mg/kg, n = 6): 18.3 ± 3.1 min | AUC(0-inf) [1, 6]: 421 ng·h/mL | AUC(0-t) [1, 6]: 420 ng·h/mL | half-life ([1]; iv bolus 0.8 mg/kg, n = 7): 33.6 ± 22.4 min | AUC(0-inf) [1, 7]: 771 ng·h/mL | AUC(0-t) [1, 7]: 769 ng·h/mL | C0 ([1]; iv bolus (tail vein) 0.2 mg/kg in water, plasma, n = 8): 712 ± 182 ng/mL | C0 ([1]; iv bolus (tail vein) 0.4 mg/kg in water, plasma, n = 6): 1440 ± 324 ng/mL | C0 ([1]; iv bolus (tail vein) 0.8 mg/kg in water, plasma, n = 7): 3250 ± 904 ng/mL | IC50 (CYP2C19; [8]): > 100 µM | IC50 (CYP2C19; without NADPH preincubation): > 100 µM | IC50 (CYP3A4; [8]): > 100 µM | IC50 (CYP3A4; without NADPH preincubation): > 100 µM

α-amanitin [reference compound]
Lethal dose (mice): 0.3 to 0.6 mg/kg | Lethal dose (rats): 4.0 mg/kg | Lethal dose (humans): 0.1 mg/kg
